Here are results for 1 molecule from patent US6242450A, “5-HT1F antagonists” (Eli Lilly and Company, priority 1999, dated 2001).

For this assay, the system named is male Wister rats. Nature of the assay: Social interaction test of anxiety. It counts as in vivo. The conditions noted are these: rat, 20 mg/kg intraperitoneal, 1 hour before test, 5 minutes observation, significance at p<0.01. How it is done: The procedure for this assay is summarized below.
All experiments were performed on male Wister rats (Harlan laboratories, 275-300 gm). The rats were individually housed in a temperatu,re controlled room (72° F.) on a 12 hour day/night cycle. The rats were provided food and water ad libitum.
Approximately 40 mg of the test compound was weighed into a 20 mL glass vial. To this solid were added 80 μL of lactic acid (85%). The mixture was sonicated for 2 minutes and then 4 mL of distilled water was added in 1 mL increments. Sonication of this mixture was continued until all of the solid had dissolved. Following sonication, the pH of the mixture was raised by the addition of dilute aqueous sodium hydroxide until the mixture reached a pH of about 5.5.
Each rat was weighed and the test compound administered by intraperitoneal injection at 20 mg/kg of body weight. […]
Experimental anxiety was measured by a social interaction test. […] A video camera was fixed above the social interaction box and all behavioral tests were recorded. […] The amount of time that the rat which received test compound spent interacting (i.e. grooming, sniffing, crawling upon) with the other rat was recorded. […]
Social interaction data was analyzed as total interaction time in seconds and the raw scores were compared between baseline and treatment. […]

For `O[C@H](COc1ccc2ccccc2c1)CN1CCC(O)(c2cnc3ccccc3c2)CC1` [Example 37, 1-((2S)-hydroxy-3-(naphth-2-yloxy)prop-1-yl)-4-hydroxy-4-(quinolin-3-yl)piperidine], the “social interaction time as compared to baseline” value is given as “significantly increase social interaction time as compared to baseline”.
